Data: ChEMBL document CHEMBL3877299, “Imidazopyridine-fused [1,3]-diazepinones part 2: Structure-activity relationships and antiproliferative activity against melanoma cells” (Eur J Med Chem, 2017)

Assays:
Format in all cases: functional
[1] = Growth inhibition of human CCRF-CEM cells assessed as cell growth at 10 uM incubated for 48 hrs by sulforhodamine B assay relative to control; conditions: read-out: Activity
[2] = Growth inhibition of human HL-60(TB) cells assessed as cell growth at 10 uM incubated for 48 hrs by sulforhodamine B assay relative to control; conditions: HL-60, 48 h, read-out: Activity
[3] = Growth inhibition of human MOLT4 cells assessed as cell growth at 10 uM incubated for 48 hrs by sulforhodamine B assay relative to control; conditions: MOLT-4, 48 h, read-out: Activity
[4] = Growth inhibition of human SR cells assessed as cell growth at 10 uM incubated for 48 hrs by sulforhodamine B assay relative to control; conditions: read-out: Activity
[5] = Growth inhibition of human A549/ATCC cells assessed as cell growth at 10 uM incubated for 48 hrs by sulforhodamine B assay relative to control; conditions: A549, 48 h, read-out: Activity
[6] = Growth inhibition of human EKVX cells assessed as cell growth at 10 uM incubated for 48 hrs by sulforhodamine B assay relative to control; conditions: read-out: Activity
[7] = Growth inhibition of human HOP62 cells assessed as cell growth at 10 uM incubated for 48 hrs by sulforhodamine B assay relative to control; conditions: HOP-62, 48 h, read-out: Activity
[8] = Growth inhibition of human NCI-H522 cells assessed as cell growth at 10 uM incubated for 48 hrs by sulforhodamine B assay relative to control; conditions: NCI-H522, 48 h, read-out: Activity
[9] = Growth inhibition of human HCC2998 cells assessed as cell growth at 10 uM incubated for 48 hrs by sulforhodamine B assay relative to control; conditions: HCC 2998, 48 h, read-out: Activity
[10] = Growth inhibition of human SW620 cells assessed as cell growth at 10 uM incubated for 48 hrs by sulforhodamine B assay relative to control; conditions: SW-620, 48 h, read-out: Activity
[11] = Growth inhibition of human SF295 cells assessed as cell growth at 10 uM incubated for 48 hrs by sulforhodamine B assay relative to control; conditions: SF-295, 48 h, read-out: Activity
[12] = Growth inhibition of human U251 cells assessed as cell growth at 10 uM incubated for 48 hrs by sulforhodamine B assay relative to control; conditions: U-251, 48 h, read-out: Activity
[13] = Growth inhibition of human LOXIMVI cells assessed as cell growth at 10 uM incubated for 48 hrs by sulforhodamine B assay relative to control; conditions: LOX IMVI, read-out: Activity
[14] = Growth inhibition of human MALME-3M cells assessed as cell growth at 10 uM incubated for 48 hrs by sulforhodamine B assay relative to control; conditions: read-out: Activity
[15] = Growth inhibition of human M14 cells assessed as cell growth at 10 uM incubated for 48 hrs by sulforhodamine B assay relative to control; conditions: M14, 48 h, read-out: Activity
[16] = Growth inhibition of human UACC257 cells assessed as cell growth at 10 uM incubated for 48 hrs by sulforhodamine B assay relative to control; conditions: UACC-257, 48 h, read-out: Activity
[17] = Growth inhibition of human UACC62 cells assessed as cell growth at 10 uM incubated for 48 hrs by sulforhodamine B assay relative to control; conditions: UACC-62, 48 h, read-out: Activity
[18] = Growth inhibition of human IGROV1 cells assessed as cell growth at 10 uM incubated for 48 hrs by sulforhodamine B assay relative to control; conditions: IGROV-1, 48 h, read-out: Activity
[19] = Growth inhibition of human OVCAR3 cells assessed as cell growth at 10 uM incubated for 48 hrs by sulforhodamine B assay relative to control; conditions: OVCAR-3, 48 h, read-out: Activity
[20] = Growth inhibition of human OVCAR4 cells assessed as cell growth at 10 uM incubated for 48 hrs by sulforhodamine B assay relative to control; conditions: OVCAR-4, 48 h, read-out: Activity
[21] = Growth inhibition of human OVCAR5 cells assessed as cell growth at 10 uM incubated for 48 hrs by sulforhodamine B assay relative to control; conditions: OVCAR-5, 48 h, read-out: Activity
[22] = Growth inhibition of human OVCAR8 cells assessed as cell growth at 10 uM incubated for 48 hrs by sulforhodamine B assay relative to control; conditions: OVCAR-8, 48 h, read-out: Activity
[23] = Growth inhibition of human NCI/ADR-RES cells assessed as cell growth at 10 uM incubated for 48 hrs by sulforhodamine B assay relative to control; conditions: read-out: Activity
[24] = Growth inhibition of human SKOV3 cells assessed as cell growth at 10 uM incubated for 48 hrs by sulforhodamine B assay relative to control; conditions: SK-OV-3, 48 h, read-out: Activity
[25] = Growth inhibition of human 786-0 cells assessed as cell growth at 10 uM incubated for 48 hrs by sulforhodamine B assay relative to control; conditions: 786-0, 48 h, read-out: Activity
[26] = Growth inhibition of human RXF393 cells assessed as cell growth at 10 uM incubated for 48 hrs by sulforhodamine B assay relative to control; conditions: RXF 393, 48 h, read-out: Activity
[27] = Growth inhibition of human SN12C cells assessed as cell growth at 10 uM incubated for 48 hrs by sulforhodamine B assay relative to control; conditions: read-out: Activity
[28] = Growth inhibition of human UO31 cells assessed as cell growth at 10 uM incubated for 48 hrs by sulforhodamine B assay relative to control; conditions: UO-31, 48 h, read-out: Activity
[29] = Growth inhibition of human PC3 cells assessed as cell growth at 10 uM incubated for 48 hrs by sulforhodamine B assay relative to control; conditions: PC-3, 48 h, read-out: Activity
[30] = Growth inhibition of human DU145 cells assessed as cell growth at 10 uM incubated for 48 hrs by sulforhodamine B assay relative to control; conditions: DU-145, 48 h, read-out: Activity
[31] = Growth inhibition of human MCF7 cells assessed as cell growth at 10 uM incubated for 48 hrs by sulforhodamine B assay relative to control; conditions: MCF7, 48 h, read-out: Activity
[32] = Growth inhibition of human MDA-MB-231 cells assessed as cell growth at 10 uM incubated for 48 hrs by sulforhodamine B assay relative to control; conditions: MDA-MB-231, 48 h, read-out: Activity
[33] = Growth inhibition of human Hs 578T cells assessed as cell growth at 10 uM incubated for 48 hrs by sulforhodamine B assay relative to control; conditions: read-out: Activity
[34] = Growth inhibition of human BT549 cells assessed as cell growth at 10 uM incubated for 48 hrs by sulforhodamine B assay relative to control; conditions: BT-549, 48 h, read-out: Activity
[35] = Growth inhibition of human MDA-MB-468 cells assessed as cell growth at 10 uM incubated for 48 hrs by sulforhodamine B assay relative to control; conditions: MDA-MB-468, 48 h, read-out: Activity

Structure (SMILES) | growth at 10 µM [1] | growth at 10 µM [2] | growth at 10 µM [3] | growth at 10 µM [4] | growth at 10 µM [5] | growth at 10 µM [6] | growth at 10 µM [7] | growth at 10 µM [8] | growth at 10 µM [9] | growth at 10 µM [10] | growth at 10 µM [11] | growth at 10 µM [12] | growth at 10 µM [13] | growth at 10 µM [14] | growth at 10 µM [15] | growth at 10 µM [16] | growth at 10 µM [17] | growth at 10 µM [18] | growth at 10 µM [19] | growth at 10 µM [20] | also measured
C[C@@H]1NC(c2ccc(Cl)cc2)=Nc2nc3ccccn3c2C1=O | 90.8% | 102% | 88.5% | 46.7% | 85.8% | 92.4% | 73.3% | 66.3% | 91.6% | 83.6% | 92.4% | 92.5% | 88.2% | 76.2% | 91% | 80.7% | 78.6% | 50.7% | 84.3% | 109% | growth at 10 µM [21]: 109%; growth at 10 µM [22]: 90.3%; growth at 10 µM [23]: 85.6%; growth at 10 µM [24]: 75.5%; growth at 10 µM [25]: 108%; growth at 10 µM [26]: 97.9%; growth at 10 µM [27]: 96.8%; growth at 10 µM [28]: 68.2%; growth at 10 µM [29]: 90%; growth at 10 µM [30]: 100%; growth at 10 µM [31]: 69.2%; growth at 10 µM [32]: 76%; growth at 10 µM [33]: 87.1%; growth at 10 µM [34]: 93.6%; growth at 10 µM [35]: 97.9%
CC(C)(C)OC[C@@H]1NC(c2ccc(Br)cc2)=Nc2nc3ccccn3c2C1=O | 67.8% | 33.1% | 53.7% | 35.4% | 51.6% | 81.6% | 54.5% | 33.4% | 90.9% | 40.3% | 30.9% | 63.5% | 58.7% | 51.5% | 46.4% | 62.3% | 53.6% | 40.8% | 34.2% | 82.3% | growth at 10 µM [21]: 105%; growth at 10 µM [22]: 79.5%; growth at 10 µM [23]: 39.7%; growth at 10 µM [24]: 64.3%; growth at 10 µM [25]: 94.2%; growth at 10 µM [26]: 61.6%; growth at 10 µM [27]: 84.1%; growth at 10 µM [28]: 52.1%; growth at 10 µM [29]: 53.4%; growth at 10 µM [30]: 82.7%; growth at 10 µM [31]: 27.8%; growth at 10 µM [32]: 61.5%; growth at 10 µM [33]: 65.2%; growth at 10 µM [34]: 72.5%; growth at 10 µM [35]: 45.6%
C[C@@H]1NC(c2ccc3ccccc3c2)=Nc2nc3ccccn3c2C1=O | 52.9% | -6.75% | 34.5% | 30.5% | 39.5% | 75.6% | 36.7% | 29.4% | 77% | 26.3% | 14.9% | 32.5% | 48.5% | 42.3% | 19.8% | 40.9% | 48.8% | 32.1% | 16.9% | 74.5% | growth at 10 µM [21]: 90.6%; growth at 10 µM [22]: 54.4%; growth at 10 µM [23]: 44.5%; growth at 10 µM [24]: 40.5%; growth at 10 µM [25]: 69.3%; growth at 10 µM [26]: 49.9%; growth at 10 µM [27]: 60.1%; growth at 10 µM [28]: 55.6%; growth at 10 µM [29]: 52%; growth at 10 µM [30]: 73.3%; growth at 10 µM [31]: 25.2%; growth at 10 µM [32]: 52.5%; growth at 10 µM [33]: 29.3%; growth at 10 µM [34]: 35.1%; growth at 10 µM [35]: 50.5%
C[C@@H]1NC(c2ccc(Cl)cc2Cl)=Nc2nc3ccccn3c2C1=O | 56.6% | 0.46% | 50.4% | 33% | 40.6% | 82.5% | 52.6% | 28.9% | 75.4% | 25.2% | 14.5% | 41.4% | 51.3% | 43.7% | 31.1% | 52.4% | 40.5% | 41.9% | 2.44% | 89.5% | growth at 10 µM [21]: 91.2%; growth at 10 µM [22]: 68.1%; growth at 10 µM [23]: 44.5%; growth at 10 µM [24]: 50.1%; growth at 10 µM [25]: 73.2%; growth at 10 µM [26]: 80.2%; growth at 10 µM [27]: 75.8%; growth at 10 µM [28]: 52.4%; growth at 10 µM [29]: 39.1%; growth at 10 µM [30]: 64.8%; growth at 10 µM [31]: 16.8%; growth at 10 µM [32]: 64.6%; growth at 10 µM [33]: 52%; growth at 10 µM [34]: 55.6%; growth at 10 µM [35]: 53.9%
